Assay results from US8187508B2, “Base agent for electrical insulating oil” (Lion Corporation, priority 2005, dated 2012).

Assays:
[1] = Kinetic viscosity (Canon Fenske viscometer, JIS K2283); assay type: physicochemical
Source text: (§1) It will be noted that in the following Examples and Comparative Examples, an acid value, moisture content, kinetic viscosity, flash point, oxidation stability, dielectric breakdown voltage, specific permittivity, and a content of fatty acid triglyceride are, respectively, values measured according to the following methods. • (1) Acid value: determined by a method pursuant to a potentiometric method of JIS K1557. • (2) Moisture content: determined by a method pursuant to the Carl Fisher method of JIS K0068. • (3) Kinetic viscosity: determined by a method pursuant to the Canon Fenske viscometer of JIS K2283. • (4) Flash point: determined by a method pursuant to the Cleaveland open-cup method of JIS K2265. • (5) Oxidation stability: determined by a method pursuant to the electrical insulating oil testing method of JIS C2101. • (6) Dielectric breakdown voltage: determined by a method pursuant to the electric insulating oil testing method of JIS C2101. • (7) Specific permittivity: determined by a method pursuant to the electric insulating oil testing method of JIS C2101. • (8) Content of fatty acid triglyceride: about 40 mg of a sample was placed in a 3-ml vial container, to which 0.5 ml of pyridine, 0.4 ml of hexamethyldisilazane and 0.2 ml of trimethylchlorosilane were added, followed by trimethylsilylation at 80° C. for 30 minutes and subjecting the resulting supernatant liquid to gas chromatographic analysis.

[2] = Flash point (Cleaveland open-cup method, JIS K2265); assay type: physicochemical
Source text: as §1

[3] = Specific permittivity (JIS C2101); assay type: physicochemical
Source text: as §1

[4] = Dielectric breakdown voltage (JIS C2101); assay type: physicochemical
Source text: as §1

[5] = Oxidation stability test (JIS C2101); assay type: physicochemical; settings: for Oxidation stability test, 120° C. after 75 hours: acid value after 120° C.; for Oxidation stability test, Initial value: acid value before the test
Protocol: In order to ensure good stability to oxygen and heat, the base agent for electrical insulating oils of the invention should preferably have a total acid value of not higher than 0.5 mg of KOH/g, more preferably not higher than 0.3 mg of KOH/g, after deterioration in an oxidation stability test (120° C., 75 hours) described in JIS C2101.
as §1

human being = settings: in vivo; cited from earlier work
rabbit = settings: in vivo; cited from earlier work

Structure (SMILES)	Kinetic viscosity (40° C.) [1]	Flash point [2]	Specific permittivity (80° C.) [3]	Di-electric breakdown voltage [4]	Oxidation stability test, 120° C. after 75 hours [5]	Oxidation stability test, Initial value [5]	Dermal irritation average point (human being)	Eye irritation (rabbit)
CCCCCCCCCCCC(=O)OCC(CC)CCCC (centres unmarked) [2-ethyl hexyl laurate, 2-ethylhexyl laurate, reference compound]	5 mm^2/s	175 °C	2.7	78 KV/2.5 mm	0.3 mgKOH/g	0.002 mgKOH/g		
CCCCC(CC)C(=O)OCC(COC(=O)C(CC)CCCC)OC(=O)C(CC)CCCC (centres unmarked) [2-ethylhexanoic acid triglyceride]							test: average point = 0.05	rabbit, 100%, OECD 405 method: no
CCCCCCCC(=O)OCC(COC(=O)CCCCCCC)OC(=O)CCCCCCC [base agent B, caprylic acid triglyceride]	12.5 mm^2/s	235 °C	3.8	71 KV/2.5 mm	0.4 mgKOH/g	0.002 mgKOH/g		
CCCCC(CC)C(=O)OCC(COC(=O)C(CC)CCCC)OC(=O)C(CC)CCCC (centres unmarked) [base agent E, 2-ethylhexanoic acid triglyceride]	16 mm^2/s	220 °C	3.5	73 KV/2.5 mm	0.2 mgKOH/g	0.008 mgKOH/g		
CC(CC(=O)OCC(COC(=O)CC(C)CC(C)(C)C)(COC(=O)CC(C)CC(C)(C)C)COC(=O)CC(C)CC(C)(C)C)CC(C)(C)C (centres unmarked) [pentaerythritol ester of 3,5,5-trimethylhexanoic acid, reference compound]	110 mm^2/s	>250 °C	>3.0	55 KV/2.5 mm	0.8 mgKOH/g	0.02 mgKOH/g		
